Reference: the supplement of paper PMC10307832

Columns and labels:
Assay in all cases: relative viability (nuclei count vs DMSO), 5 days (fraction); higher = more cells survive
Selisistat + Trametinib = compound: C1CC(C2=C(C1)C3=C(N2)C=CC(=C3)Cl)C(=O)N [Selisistat] + CC(=O)Nc1cccc(-n2c(=O)n(C3CC3)c(=O)c3c(Nc4ccc(I)cc4F)n(C)c(=O)c(C)c32)c1 [Trametinib] (partner 0.02 µM)
Outline: (§1)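 Relative viability is defined as nuclei in treated wells over nuclei in vehicle wells. Duplicate plates were run and medians reported. Lung cancer cell lines in 1536-well plates were dosed by pin tool one day after seeding, with one drug or with a fixed anchor-drug dose plus five library-drug doses (not always all listed) in √10 steps, and nuclei were counted after 5 days.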

Serdemetan + Vorinostat = compound: c1ccc2c(CCNc3ccc(Nc4ccncc4)cc3)c[nH]c2c1 [Serdemetan] + O=C(CCCCCCC(=O)Nc1ccccc1)NO [Vorinostat] (partner 1 µM)
Outline: as §1

Selisistat + Alpelisib = compound: C1CC(C2=C(C1)C3=C(N2)C=CC(=C3)Cl)C(=O)N [Selisistat] + Cc1nc(NC(=O)N2CCC[C@H]2C(N)=O)sc1-c1ccnc(C(C)(C)C(F)(F)F)c1 [Alpelisib] (partner 2 µM)
Outline: as §1

Selisistat + Phenformin = compound: C1CC(C2=C(C1)C3=C(N2)C=CC(=C3)Cl)C(=O)N [Selisistat] + N=C(N)NC(=N)NCCc1ccccc1 [Phenformin] (partner 250 µM)
Outline: as §1

| Cell Line | relative viability (Selisistat + Trametinib; first compound 0.4 µM) | relative viability (Selisistat + Trametinib; first compound 1.265 µM) | relative viability (Selisistat + Trametinib; first compound 4 µM) | relative viability (Selisistat + Trametinib; first compound 12.65 µM) | relative viability (Selisistat + Trametinib; first compound 40 µM) | relative viability (Serdemetan + Vorinostat; first compound 0.04 µM) | relative viability (Serdemetan + Vorinostat; first compound 0.1265 µM) | relative viability (Serdemetan + Vorinostat; first compound 0.4 µM) | relative viability (Serdemetan + Vorinostat; first compound 1.265 µM) | relative viability (Serdemetan + Vorinostat; first compound 4 µM) | relative viability (Selisistat + Alpelisib; first compound 0.4 µM) | relative viability (Selisistat + Alpelisib; first compound 1.265 µM) | relative viability (Selisistat + Alpelisib; first compound 4 µM) | relative viability (Selisistat + Alpelisib; first compound 12.65 µM) | relative viability (Selisistat + Alpelisib; first compound 40 µM) | relative viability (Selisistat + Phenformin; first compound 0.4 µM) | relative viability (Selisistat + Phenformin; first compound 1.265 µM) | relative viability (Selisistat + Phenformin; first compound 4 µM) | relative viability (Selisistat + Phenformin; first compound 12.65 µM) | relative viability (Selisistat + Phenformin; first compound 40 µM) |
| --- | --- | --- | --- | --- | --- | --- | --- | --- | --- | --- | --- | --- | --- | --- | --- | --- | --- | --- | --- | --- |
| 201T | 0.761 | 0.655 | 0.71 | 0.691 | 0.749 | 0.974 | 0.996 | 0.883 | 0.879 | 0.715 | 1.04 | 0.986 | 0.981 | 1.03 | 1.02 | 0.449 | 0.436 | 0.432 | 0.41 | 0.481 |
| A549 | – | – | – | – | – | – | – | – | – | – | 0.976 | 0.841 | 0.652 | 0.843 | 0.901 | 0.192 | 0.17 | – | 0.123 | 0.145 |
| A-427 | 0.842 | 0.801 | – | 0.776 | 0.775 | 0.854 | 0.849 | 0.867 | 0.779 | 0.709 | 1.08 | 1.09 | 1.02 | 1.14 | 1.12 | 0.261 | 0.383 | 0.266 | 0.255 | 0.327 |
| ABC-1 | – | – | – | – | – | 0.985 | 0.949 | 0.989 | 0.832 | 0.787 | 0.977 | 0.972 | 0.872 | 1.15 | 0.921 | 0.221 | 0.213 | 0.265 | 0.265 | 0.263 |
| BEN | 1.05 | 0.882 | 0.896 | 1.03 | 0.957 | 0.603 | 0.54 | 0.688 | 0.615 | 0.514 | 0.953 | 0.986 | 0.818 | 0.9 | 0.884 | 0.246 | 0.286 | 0.256 | 0.239 | 0.275 |
| CAL-12T | 0.375 | 0.365 | 0.35 | 0.311 | 0.341 | 0.857 | 0.82 | 0.748 | 0.922 | 0.627 | 1.29 | 1.07 | 1.14 | 1.16 | 1.19 | 0.586 | 0.565 | 0.406 | 0.516 | 0.537 |
| COR-L23 | 0.66 | 0.597 | 0.656 | 0.614 | 0.645 | 0.441 | 0.434 | 0.392 | 0.412 | 0.362 | 0.921 | 0.872 | 0.793 | 0.767 | 0.766 | 0.443 | 0.43 | 0.458 | 0.424 | 0.441 |
| COR-L 105 | 0.45 | 0.421 | 0.421 | 0.442 | 0.512 | 0.863 | 0.96 | 0.758 | 0.861 | 0.645 | 0.888 | 0.929 | 1.03 | 0.964 | 0.846 | 0.479 | 0.439 | – | 0.371 | 0.421 |
| Calu-6 | – | – | – | – | – | – | – | – | – | – | 1.02 | 0.896 | 1.01 | 0.841 | 0.873 | – | – | – | – | – |
| ChaGo-K-1 | 0.895 | 0.886 | 0.881 | 0.895 | 0.888 | 0.741 | 0.697 | 0.77 | 0.329 | 0.331 | – | – | – | – | – | 0.488 | 0.458 | 0.439 | 0.422 | 0.485 |
| EBC-1 | – | – | – | – | – | – | – | – | – | – | 0.982 | 0.891 | 0.806 | 0.807 | 0.911 | – | – | – | – | – |
| EKVX | 0.383 | 0.392 | 0.324 | 0.379 | 0.48 | 0.798 | 0.719 | – | 0.462 | 0.546 | 0.949 | 0.855 | 0.723 | 0.853 | 0.878 | 0.221 | 0.243 | 0.222 | 0.23 | 0.249 |
| EMC-BAC-2 | 0.907 | 0.927 | 0.96 | 0.885 | 0.816 | 0.463 | 0.471 | 0.495 | 0.379 | 0.399 | 0.693 | 0.708 | 0.674 | 0.697 | 0.777 | 0.514 | 0.502 | 0.567 | 0.517 | 0.493 |
| EPLC-272H | 0.294 | 0.287 | – | 0.284 | 0.33 | 0.396 | 0.654 | 0.532 | 0.304 | 0.218 | 1.02 | 0.853 | – | 0.977 | 0.885 | 0.302 | 0.322 | – | 0.288 | 0.296 |
| H3255 | 0.664 | 0.526 | 0.584 | 0.636 | 0.637 | 0.701 | 0.797 | – | 0.487 | 0.73 | 0.724 | 0.662 | 0.725 | 0.62 | 0.786 | 0.375 | 0.363 | 0.327 | 0.405 | 0.374 |
| HARA | 0.659 | 0.962 | – | 0.509 | 0.377 | 0.527 | 0.565 | 0.492 | 0.483 | 0.274 | 0.881 | 0.868 | 0.793 | 0.846 | 0.842 | 0.412 | 0.476 | 0.412 | 0.396 | 0.379 |
| HCC-15 | 0.453 | 0.433 | – | 0.37 | 0.468 | 0.848 | 0.83 | 0.704 | 0.681 | 0.456 | 1.04 | 0.9 | – | 0.775 | 0.878 | 0.515 | 0.524 | – | 0.44 | 0.501 |
| HCC-44 | 1.1 | 1.22 | 1.13 | 1.07 | 1.05 | 1.05 | 1.12 | 1.05 | 1.05 | 0.825 | 0.86 | 0.874 | 0.853 | 0.846 | 0.9 | 0.159 | – | 0.168 | 0.226 | 0.353 |
| HCC-78 | 0.783 | 0.779 | 0.696 | 0.744 | 0.732 | 0.464 | 0.432 | 0.483 | 0.388 | 0.339 | 0.439 | 0.367 | 0.349 | 0.34 | 0.278 | 0.774 | 0.815 | 0.54 | 0.685 | 0.744 |
